Assay results from US9260429B2, “Pyrido[3,4-B]indoles and methods of use” (Medivation Technologies, Inc., priority 2008, dated 2016).

Columns and labels:
[1] = target: T1, human recombinant dopamine D2L receptor (Homo sapiens, UniProt P14416); experiment: Dopamine D2L radioligand binding ([3H]Spiperone); conditions: 2 h, 1 μM ligand conc.; read-out: Percent Inhibition of ligand binding Dopamine (1 μM ligand conc.) D2L
T1 construct: expressed in transfected cells; host or cells: CHO cells
In short: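 CHO-expressed receptor in 50 mM Tris-HCl pH 7.4 with ascorbic acid, 0.001% BSA, 150 mM NaCl; 0.16 nM [3H]spiperone, 120 min at 25 °C; nonspecific binding with haloperidol.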

[2] = target: T2, human recombinant serotonin (5-Hydroxytryptamine) 5-HT2C receptor (Homo sapiens, UniProt P28335); experiment: Serotonin 5-HT2C radioligand binding ([3H]Mesulergine); conditions: 1 h; read-out: Percent Inhibition of ligand binding Serotonin (1 μM ligand concentration) 5-HT2C
T2 construct: expressed in transfected cells; host or cells: CHO-K1 cells
T2 sequence (P28335 33-458): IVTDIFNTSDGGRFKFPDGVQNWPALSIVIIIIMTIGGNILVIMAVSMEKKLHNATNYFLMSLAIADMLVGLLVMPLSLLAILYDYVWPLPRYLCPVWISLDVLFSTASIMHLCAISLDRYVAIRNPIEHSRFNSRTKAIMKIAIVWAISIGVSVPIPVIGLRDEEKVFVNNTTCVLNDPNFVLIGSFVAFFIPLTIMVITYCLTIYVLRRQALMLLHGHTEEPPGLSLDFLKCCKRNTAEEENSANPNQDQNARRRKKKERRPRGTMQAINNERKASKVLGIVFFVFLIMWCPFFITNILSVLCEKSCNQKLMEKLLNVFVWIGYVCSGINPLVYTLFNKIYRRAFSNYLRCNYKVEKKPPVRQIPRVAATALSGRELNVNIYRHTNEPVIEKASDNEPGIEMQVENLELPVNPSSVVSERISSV
Method: Compounds of the invention were incubated with 1 nM [^3H]Mesulergine for 60 minutes at 25° C. Non-specific binding was estimated in the presence of 1 μM Mianserin. Receptor proteins were filtered and washed, the filters were then counted to determine [^3H]Mesulergine specifically bound. […] Biochemical assay results are presented as the percent inhibition of specific binding in Table 5.

[3] = target: T3, human recombinant serotonin (5-Hydroxytryptamine) 5-HT6 receptor (Homo sapiens, UniProt P50406); experiment: Serotonin 5-HT6 radioligand binding ([3H]LSD); conditions: 2 h; read-out: Percent Inhibition of ligand binding Serotonin (1 μM ligand concentration) 5-HT6
T3 construct: expressed in transfected cells; host or cells: human HeLa cells
In short: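 Human 5-HT6 receptor expressed in HeLa cells, in Tris-HCl pH 7.4 with 150 mM NaCl, ascorbic acid and BSA. Compounds at 1 μM or lower (1% DMSO) incubated 120 min at 37° C with 1.5 nM [3H]LSD. Non-specific binding defined with serotonin; filter counting gives % inhibition of specific binding.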

[4] = target: T4, human recombinant histamine H1 receptor (Homo sapiens, UniProt P35367); experiment: Histamine H1 radioligand binding ([3H]Pyrilamine); conditions: 1 μM; read-out: Binding data (Percentage Inhibition) Histamine Binding (1 μM) H1
T4 construct: expressed in transfected cells; host or cells: CHO cells
In short: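 Binding to the human recombinant histamine H1 receptor, expressed in CHO cells, was measured in a modified Tris-HCl buffer (50 mM Tris-HCl, pH 7.4, 2 mM MgCl2, 100 mM NaCl, 250 mM Sucrose). Compounds were incubated with 1.2 nM [3H]Pyrilamine for 180 minutes at 25° C, with 1 μM pyrilamine defining non-specific binding. After filtration and washing, filter counts gave percent inhibition of specific binding.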

T1 sequence (P14416 whole entry): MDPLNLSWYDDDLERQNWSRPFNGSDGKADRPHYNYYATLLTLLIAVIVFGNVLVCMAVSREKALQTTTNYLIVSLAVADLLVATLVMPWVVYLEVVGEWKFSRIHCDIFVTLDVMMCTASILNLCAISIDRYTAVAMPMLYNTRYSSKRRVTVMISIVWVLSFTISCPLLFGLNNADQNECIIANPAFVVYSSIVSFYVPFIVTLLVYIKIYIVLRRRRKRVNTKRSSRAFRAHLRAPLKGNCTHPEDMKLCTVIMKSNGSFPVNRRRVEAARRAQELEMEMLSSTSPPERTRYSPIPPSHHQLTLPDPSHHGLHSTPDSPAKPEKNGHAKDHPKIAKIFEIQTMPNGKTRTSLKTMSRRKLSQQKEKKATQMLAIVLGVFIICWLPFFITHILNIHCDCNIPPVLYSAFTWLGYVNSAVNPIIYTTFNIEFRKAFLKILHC
T4 sequence (P35367 whole entry): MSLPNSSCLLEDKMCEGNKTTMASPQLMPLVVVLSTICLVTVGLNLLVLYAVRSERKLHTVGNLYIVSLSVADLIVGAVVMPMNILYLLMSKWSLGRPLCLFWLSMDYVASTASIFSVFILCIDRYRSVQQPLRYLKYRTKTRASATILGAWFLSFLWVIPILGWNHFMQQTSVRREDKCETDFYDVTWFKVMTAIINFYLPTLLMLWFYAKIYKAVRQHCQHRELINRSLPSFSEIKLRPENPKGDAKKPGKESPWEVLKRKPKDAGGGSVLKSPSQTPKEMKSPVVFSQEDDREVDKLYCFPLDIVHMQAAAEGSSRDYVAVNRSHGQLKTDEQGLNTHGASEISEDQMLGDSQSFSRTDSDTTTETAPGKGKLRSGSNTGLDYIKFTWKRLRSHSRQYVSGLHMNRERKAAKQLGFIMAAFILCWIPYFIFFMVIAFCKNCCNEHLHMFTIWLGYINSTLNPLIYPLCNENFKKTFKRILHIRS
T3 sequence (P50406 whole entry): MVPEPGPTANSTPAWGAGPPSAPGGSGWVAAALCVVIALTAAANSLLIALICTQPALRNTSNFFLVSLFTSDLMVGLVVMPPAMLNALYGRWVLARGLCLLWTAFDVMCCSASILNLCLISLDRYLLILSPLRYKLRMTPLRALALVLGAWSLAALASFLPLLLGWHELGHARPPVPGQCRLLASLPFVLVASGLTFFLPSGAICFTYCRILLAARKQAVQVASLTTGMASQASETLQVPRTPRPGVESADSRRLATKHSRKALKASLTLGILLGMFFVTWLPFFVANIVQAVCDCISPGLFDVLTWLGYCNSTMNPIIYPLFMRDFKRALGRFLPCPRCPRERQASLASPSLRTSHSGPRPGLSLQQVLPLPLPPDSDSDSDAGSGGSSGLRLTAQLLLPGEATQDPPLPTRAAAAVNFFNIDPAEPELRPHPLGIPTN

Row | Compound | inhibition at 1 µM [1] [%] | inhibition at 1 µM [2] [%] | inhibition at 1 µM [3] [%] | inhibition at 1 µM [4] [%]
1 | CN1CCc2c(n(CC(=O)N3CCCCC3)c3ccc(Cl)cc23)C1 [Compound 58, 2-(6-chloro-2-methyl-3,4-dihydro-1H-pyrido[3,4-b]indol-9(2H)-yl)-1-(piperidin-1-yl)ethanone] | -5 | 30 | -7 | 2
2 | CN1CCc2c(n(CC(O)c3ccccc3F)c3ccc(Cl)cc23)C1 (stereo not drawn) [Compound 59, 2-(6-chloro-2-methyl-3,4-dihydro-1H-pyrido[3,4-b]indol-9(2H)-yl)-1-(2-fluorophenyl)ethanol] | 35 | 74 | 60 | 13
3 | Cc1ccc2c(c1)c1c(n2CC(O)c2ccccc2F)CN(C)CC1 (stereo not drawn) [Compound 60, 2-(2,6-dimethyl-3,4-dihydro-1H-pyrido[3,4-b]indol-9(2H)-yl)-1-(2-fluorophenyl)ethanol] | 18 | 5 | 62 | 19
4 | Cc1ccc2c(c1)c1c(n2CC(C)(O)c2ccc(F)cc2)CN(C)CC1 (stereo not drawn) [Compound 61, 1-(2,6-dimethyl-3,4-dihydro-1H-pyrido[3,4-b]indol-9(2H)-yl)-2-(4-fluorophenyl)propan-2-ol] | 41 | 81 | 61 | 49
5 | CN1CCc2c(n(CC(C)(O)c3ccc(F)cc3)c3ccc(Cl)cc23)C1 (stereo not drawn) [Compound 62, 1-(6-chloro-2-methyl-3,4-dihydro-1H-pyrido[3,4-b]indol-9(2H)-yl)-2-(4-fluorophenyl)propan-2-ol] | 81 | 95 | 77 | 48
6 | COc1ccc(C(O)Cn2c3c(c4cc(C)ccc42)CCN(C)C3)cc1OC (stereo not drawn) [Compound 66] | 9 | 48 | 5 | 19
7 | Cc1ccc2c(c1)c1c(n2CC(O)c2ccccc2)CN(C)CC1 (stereo not drawn) [Compound 67] | 21 | 85 | 51 | 35
8 | COc1ccc(C(O)Cn2c3c(c4cc(Cl)ccc42)CCN(C)C3)cc1OC (stereo not drawn) [Compound 70] | 0 | 63 | 21 | 39
9 | CN1CCc2c(n(CC(O)c3ccccc3)c3ccc(Cl)cc23)C1 (stereo not drawn) [Compound 71] | 21 | 81 | 66 | 54
